# Experimental data as given in ChEMBL document CHEMBL1201862, “PubChem BioAssay data set” (2004).
# Values joined by “and” are separate entries in the source; they are usually repeats but may differ in a detail not shown here. Equal entries are not always repeated. Active and inactive are the calls of the source.
# What was measured:
# [1] = viability of PTEN-deleted HCT116 cells – cell-based, HCT116 PTEN knockout, dose response (AID 1047); type: functional;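 further: HCT116 colon tumor cells with PTEN knocked out; cells exposed to compound for 60 hours before readout; potency for loss of cell viability measured by luminescence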
# [2] = viability of HCT116 lacking mutant beta-catenin – cell-based, human colon tumor, dose response (AID 1045); type: functional;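 further: HCT116 colon tumor cells with beta catenin knocked out; cells exposed to compound for 60 hours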
# [3] = molecular target: Cytochrome P450 2C19 (Homo sapiens, UniProt P33261); experiment: Cytochrome panel assay with activity outcomes. Panel member name: p450-cyp2c19 Compounds with AC50 equal or less than 10 uM are considered active; type: functional
# Chain of Cytochrome P450 2C19 (P33261 whole entry): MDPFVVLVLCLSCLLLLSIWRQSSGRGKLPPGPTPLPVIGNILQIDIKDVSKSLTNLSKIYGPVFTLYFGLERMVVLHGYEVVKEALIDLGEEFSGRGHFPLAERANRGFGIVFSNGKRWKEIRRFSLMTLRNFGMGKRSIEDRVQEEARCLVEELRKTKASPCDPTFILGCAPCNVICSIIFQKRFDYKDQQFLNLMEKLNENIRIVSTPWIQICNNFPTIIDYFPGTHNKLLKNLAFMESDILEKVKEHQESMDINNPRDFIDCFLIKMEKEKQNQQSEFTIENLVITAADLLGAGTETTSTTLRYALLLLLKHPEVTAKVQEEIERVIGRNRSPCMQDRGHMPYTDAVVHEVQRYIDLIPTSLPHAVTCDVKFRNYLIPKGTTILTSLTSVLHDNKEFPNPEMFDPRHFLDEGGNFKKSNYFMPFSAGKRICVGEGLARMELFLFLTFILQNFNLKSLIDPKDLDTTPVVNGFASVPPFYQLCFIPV
# [4] = molecular target: T1, Cytochrome P450 1A2 (Homo sapiens, UniProt P05177);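 further: PubChem cytochrome P450 panel assay, CYP1A2 panel member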
# T1 sequence (P05177 whole entry): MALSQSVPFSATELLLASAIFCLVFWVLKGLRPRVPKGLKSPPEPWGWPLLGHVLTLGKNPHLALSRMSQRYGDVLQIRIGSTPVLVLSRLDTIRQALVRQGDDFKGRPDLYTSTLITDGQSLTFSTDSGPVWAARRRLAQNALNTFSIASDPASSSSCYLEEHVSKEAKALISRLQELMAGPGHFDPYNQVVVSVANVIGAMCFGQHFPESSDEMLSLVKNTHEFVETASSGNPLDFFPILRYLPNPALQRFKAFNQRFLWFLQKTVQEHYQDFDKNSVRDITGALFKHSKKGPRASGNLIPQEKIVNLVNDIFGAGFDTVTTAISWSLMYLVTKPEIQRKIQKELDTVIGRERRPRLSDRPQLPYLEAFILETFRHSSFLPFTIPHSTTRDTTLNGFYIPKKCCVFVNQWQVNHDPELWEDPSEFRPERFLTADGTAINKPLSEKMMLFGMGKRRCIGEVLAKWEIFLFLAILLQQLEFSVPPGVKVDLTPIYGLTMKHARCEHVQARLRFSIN
# [5] = molecular target: Cytochrome P450 2C9 (Homo sapiens, UniProt P11712)
# Chain of Cytochrome P450 2C9 (P11712 whole entry): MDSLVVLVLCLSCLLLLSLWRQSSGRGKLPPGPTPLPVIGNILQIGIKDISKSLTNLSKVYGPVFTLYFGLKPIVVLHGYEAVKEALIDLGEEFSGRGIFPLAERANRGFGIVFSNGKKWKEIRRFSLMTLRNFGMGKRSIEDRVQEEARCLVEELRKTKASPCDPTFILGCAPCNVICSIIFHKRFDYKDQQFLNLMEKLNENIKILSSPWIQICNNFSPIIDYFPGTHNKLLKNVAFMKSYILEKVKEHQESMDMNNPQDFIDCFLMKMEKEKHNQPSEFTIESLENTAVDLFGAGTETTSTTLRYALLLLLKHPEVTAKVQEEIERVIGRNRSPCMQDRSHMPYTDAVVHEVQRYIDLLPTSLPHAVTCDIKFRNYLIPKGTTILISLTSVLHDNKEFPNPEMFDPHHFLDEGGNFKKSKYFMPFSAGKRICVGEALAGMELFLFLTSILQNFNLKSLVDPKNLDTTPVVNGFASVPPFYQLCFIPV
# [6] = viability of uninfected HEp-2 cells – cell-based, HTS, cytotoxicity control for RSV inhibitor project, dose response (AID 2410); type: functional; conditions: human respiratory syncytial virus
# [7] = NIH-3T3 fibroblast cytotoxicity, dose response, cytotoxicity control, cell-based, fluorescence, Alamar Blue, secondary assay (AID 2327); type: functional;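 further: NIH-3T3 mouse fibroblasts cultured with fluconazole at 8 µg/mL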
# [8] = fluconazole-exposed Candida albicans growth modulators – fluorescence, retest, confirmation (AID 2467); type: functional, cell-based
# [9] = molecular target: T2, Corticotropin-releasing factor receptor 2/Corticotropin-releasing factor-binding protein (Homo sapiens, UniProt P24387+Q13324); experiment: Dose Response confirmation of uHTS hits for small molecule antagonists of the CRF-binding protein and CRF-R2 receptor complex.; type: functional; conditions: read-out: IC50_Mean
# T2 sequence (Q13324 whole entry): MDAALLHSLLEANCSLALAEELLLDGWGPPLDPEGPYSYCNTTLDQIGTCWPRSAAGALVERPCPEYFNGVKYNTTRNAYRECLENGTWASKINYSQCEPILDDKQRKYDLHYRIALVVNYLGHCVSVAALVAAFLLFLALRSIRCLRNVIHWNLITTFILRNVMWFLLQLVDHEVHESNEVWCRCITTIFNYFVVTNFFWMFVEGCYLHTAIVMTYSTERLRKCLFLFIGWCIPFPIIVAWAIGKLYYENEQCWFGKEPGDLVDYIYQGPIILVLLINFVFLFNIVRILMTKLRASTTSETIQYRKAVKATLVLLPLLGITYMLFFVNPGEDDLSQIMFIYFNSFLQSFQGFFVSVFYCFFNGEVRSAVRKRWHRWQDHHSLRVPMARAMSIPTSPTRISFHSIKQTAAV
# T2 sequence (P24387 whole entry): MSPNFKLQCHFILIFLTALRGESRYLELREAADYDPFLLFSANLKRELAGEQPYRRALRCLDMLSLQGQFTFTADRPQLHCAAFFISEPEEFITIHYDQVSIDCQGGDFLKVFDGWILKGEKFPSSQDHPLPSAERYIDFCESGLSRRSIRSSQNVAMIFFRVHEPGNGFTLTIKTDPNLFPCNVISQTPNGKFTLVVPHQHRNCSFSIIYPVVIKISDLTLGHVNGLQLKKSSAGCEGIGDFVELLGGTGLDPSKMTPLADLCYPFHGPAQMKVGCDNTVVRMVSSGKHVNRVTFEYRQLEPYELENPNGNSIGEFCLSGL
# [10] = molecular target: T2, Corticotropin-releasing factor receptor 2/Corticotropin-releasing factor-binding protein; experiment: activators of CRF receptor 2 with binding protein – uHTS hits, confirmation (AID 602473); type: functional; conditions: read-out: EC50_Mean
# [11] = molecular target: Cytochrome P450 2D6 (Homo sapiens, UniProt P10635);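 further: CYP2D6 member of a cytochrome P450 panel assay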
# Chain of Cytochrome P450 2D6 (P10635 whole entry): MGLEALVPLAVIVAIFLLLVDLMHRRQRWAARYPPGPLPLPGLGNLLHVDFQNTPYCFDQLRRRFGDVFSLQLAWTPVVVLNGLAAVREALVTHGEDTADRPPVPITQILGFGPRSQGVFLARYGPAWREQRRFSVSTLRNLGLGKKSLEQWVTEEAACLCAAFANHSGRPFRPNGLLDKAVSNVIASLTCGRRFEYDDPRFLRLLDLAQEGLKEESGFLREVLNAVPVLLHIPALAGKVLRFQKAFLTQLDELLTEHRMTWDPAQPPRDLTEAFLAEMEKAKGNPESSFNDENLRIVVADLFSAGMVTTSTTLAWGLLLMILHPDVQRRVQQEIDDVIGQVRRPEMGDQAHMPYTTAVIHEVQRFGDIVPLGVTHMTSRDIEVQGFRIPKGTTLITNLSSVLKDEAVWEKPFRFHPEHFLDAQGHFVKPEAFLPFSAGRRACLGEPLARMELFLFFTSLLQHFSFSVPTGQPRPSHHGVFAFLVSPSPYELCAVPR
# [12] = test system: Streptococcus sp. 'group A'; experiment: Streptococcus pyogenes SK(-)GAS viability under kanamycin – luminescence, BacTiterGlo, confirmation, counter-screen for streptokinase expression inhibitor project, dose response (AID 1900); type: functional, organism-based
# [13] = test system: Streptococcus; experiment: GAS UMAA2166 growth inhibition – luminescence, BacTiterGlo, counter-screen for streptokinase expression inhibitor project, dose response (AID 1915); type: functional, organism-based;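 further: potency for reduction of bacterial viability or growth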
# [14] = test system: INS1; experiment: INS-1E survival protection against cytokine death – cell-based, luminescence, retest, dose response (AID 449756); type: functional; conditions: Rattus norvegicus;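 further: cell death triggered by IL-1 beta plus TNF-alpha plus IFN-gamma mixture; protective hits raise ATP signal compared with cytokine alone wells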
# [15] = Trypanosoma cruzi growth suppression in host cells – NIH3T3 host cells, beta-gal luminescence, confirmation (AID 2044); type: functional, cell-based;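 further: intracellular parasites grown in NIH/3T3 mouse fibroblasts as host cells; luminescent beta-galactosidase reporter signal from transgenic T. cruzi replicating inside host cells; inhibitors lower the luminescence signal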
# [16] = NIH3T3 cell viability loss – ATP luminescence, mouse fibroblasts, counter-screen, dose response (AID 2010); type: functional, cell-based;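 further: cells exposed to compound for about 90 hours before reading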
# [17] = molecular target: Cytochrome P450 3A4 (Homo sapiens, UniProt P08684);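 further: CYP3A4 tested as one member of a cytochrome P450 panel screen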
# Chain of Cytochrome P450 3A4 (P08684 whole entry): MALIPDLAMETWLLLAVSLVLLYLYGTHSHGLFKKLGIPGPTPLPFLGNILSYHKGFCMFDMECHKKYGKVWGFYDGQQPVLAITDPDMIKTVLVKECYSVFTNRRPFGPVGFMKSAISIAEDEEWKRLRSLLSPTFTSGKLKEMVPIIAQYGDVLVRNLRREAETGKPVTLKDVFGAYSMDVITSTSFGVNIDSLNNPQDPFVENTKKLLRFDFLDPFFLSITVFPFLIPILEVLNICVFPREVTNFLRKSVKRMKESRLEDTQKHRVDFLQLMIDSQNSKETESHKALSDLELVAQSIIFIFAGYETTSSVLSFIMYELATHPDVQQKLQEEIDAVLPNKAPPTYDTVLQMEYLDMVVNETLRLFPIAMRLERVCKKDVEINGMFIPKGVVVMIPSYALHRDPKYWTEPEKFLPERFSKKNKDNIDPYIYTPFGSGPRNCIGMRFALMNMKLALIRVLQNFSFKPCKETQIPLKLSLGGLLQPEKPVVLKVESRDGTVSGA
# [18] = reduction of Shn3 3'UTR-driven luciferase in osteoblasts – cell-based, Clone20 osteoblasts, firefly luciferase, cherry-picked, dose response (AID 624132); type: functional;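 further: firefly luciferase luminescence from reporter carrying the Shn3 3'UTR in osteoblasts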
# [19] = non-specific 3'UTR reporter inhibition in Clone20-Shn3RL – cell-based, Renilla luciferase, cherry-picked, counter-screen for Shn3 inhibitor project, dose response (AID 624133); type: functional
# [20] = luciferase reporter signal suppression in cells – H4 neuroglioma cells, luminescence, dose response (AID 1990); type: functional, cell-based
# [21] = Luminescence Cell-Based Dose Response HTS to Identify Inhibitors of 5'UTR Stem-Loop Driven Prion Protein mRNA Translation in H4 Neuroglioblastoma Cells. [Related pubchem assays: 1827 (Project Summary), 1813 (Primary HTS)]; type: functional
# [22] = alpha-synuclein stem-loop luciferase translation blockers – H4 neuroglioma cells, luminescence, confirmation (AID 1988); type: functional, cell-based
compound,measurement,setting,value
c1ccc(-n2nnnc2Oc2cccc3cccnc23)cc1,EC50,[1],22.6 µM (active)
same,EC50,[2],20.8 µM (active)
CC(C)OC(=O)/C(=C\c1ccc2c(c1)c1ccccc1n2C)NC(=O)c1ccccc1,AC50,[3]; read-out: AC50,2.51 µM (inconclusive)
same,AC50,[4],2.24 µM (inconclusive)
same,AC50,[5],6.31 µM (inconclusive)
CSc1nnnn1-c1ccc(Cl)cc1,CC50,[6],30.7 µM (active)
Cc1cc(C)c(S(=O)(=O)Nc2nnc(C3CCCCC3)s2)c(C)c1,EC50,[7],> 160 µM (inactive)
same,EC50,[8],1.93 µM (active)
CC(/C=C/c1ccccc1)=N/NC(=O)CNC(=O)c1ccc2c(c1)OCO2,IC50,[9],> 47.1 µM (inactive)
same,EC50,[10],> 53 µM (inactive)
same,AC50,[11],0.0501 µM (inconclusive)
CC(C)CC(=O)NCc1ccc2[nH]c3c(c2c1)CCCC3,EC50,[7],> 160 µM (inactive)
same,EC50,[8],> 38 µM (not active)
O=C(NCc1nnc(SCC(=O)N2CCCc3ccccc32)n1-c1ccccc1)c1cccc2ccccc12,CC50,[6],> 50 µM (active)
CN1CCN(C2=Nc3ccccc3Oc3ccc(Cl)cc32)CC1 [LOXAPINE SUCCINATE],AC50,[11],10 µM (inconclusive) and 31.6 µM (inconclusive)
same,AC50,[4],31.6 µM (inconclusive) and 3.16 µM (inconclusive)
Clc1ccccc1OCCCCN1CCCC1,AC50,[3]; read-out: AC50,28.2 µM (inconclusive)
same,AC50,[4],15.8 µM (inconclusive)
C/C(=C\c1ccccc1)CN1CCC(C(=O)N2CCCCC2)CC1,IC50,[9],> 47.1 µM (inactive)
same,EC50,[10],> 53 µM (inactive)
CCc1ccc(C(=O)NNc2ccc(F)cc2)cc1,EC50,[7],12.2 µM (active)
same,EC50,[8],> 38 µM (not active)
CCc1ccc(OCC(=O)NC(N=C(S)Nc2ccc(C)cc2C)C(Cl)(Cl)Cl)cc1 (centres undefined),EC50,[12],3.3 µM (active)
same,EC50,[1],30.8 µM (active)
same,EC50,[2],41.1 µM (active)
same,EC50,[13],8.13 µM (active)
same,AC50,[14],7.48 µM (active)
Cc1onc(-c2ccccc2Cl)c1C(=O)Nc1cccc2cccnc12,CC50,[6],3.16 µM (active)
O=C(NNc1ccccc1)C(CCO)C(=O)NNc1ccccc1,EC50,[7],19.6 µM (active)
same,EC50,[8],> 38 µM (not active)
O=C(C1CCC1)N1CCc2cc(S(=O)(=O)Nc3ccc4c(c3)OCCO4)ccc21,AC50,[14],5.88 µM (active)
O=C(c1ccc(COc2c(F)c(F)cc(F)c2F)o1)N1CCN(c2ccc(Cl)cc2)CC1,EC50,[1],21.5 µM (active)
same,EC50,[2],11.7 µM (active)
CSc1cccc(NC(=O)C(C)C)c1,IC50,[9],> 47.1 µM (inactive)
same,EC50,[10],> 53 µM (inactive)
Clc1ccc(OCCn2ccnc2)c2ccccc12,EC50,[7],> 150 µM (inactive)
same,EC50,[8],3.78 µM (active)
same,EC50,[15],3.91 µM (active)
same,EC50,[16],> 60 µM (not active)
O=C(Nc1ccncc1)Nc1cccc(C(F)(F)F)c1,CC50,[6],> 50 µM (active)
Cn1c(CC(=O)Nc2ccc(Cl)c(Cl)c2)nnc1SCC(=O)N1CCN(c2ccccc2)CC1,AC50,[11],25.1 µM (inconclusive)
same,AC50,[4],15.8 µM (inconclusive)
CCOc1ccc(-c2c(=O)n(OCc3ccccn3)c3ccccc3[n+]2[O-])cc1,AC50,[3]; read-out: AC50,15.8 µM (inconclusive)
same,AC50,[4],12.6 µM (inconclusive)
same,AC50,[17],12.6 µM (inconclusive)
same,AC50,[5],5.62 µM (inconclusive)
O=C(O)c1ccc(Nc2cnc3ccccc3n2)cc1,EC50,[7],> 160 µM (inactive)
same,EC50,[8],> 38 µM (not active)
O=C(c1ccco1)N1CCN(c2ncnc3c2cnn3-c2ccccc2)CC1,CC50,[6],38.5 µM (active)
O=C(Nc1ccc(F)cc1)c1nc[nH]c1C(=O)Nc1ccc([N+](=O)[O-])cc1,EC50,[1],17.6 µM (active)
same,EC50,[2],11.2 µM (active)
N#Cc1cnn2c(-c3cccc(C(F)(F)F)c3)ccnc12,CC50,[6],47 µM (active)
O=C(Nc1cccc(F)c1)N1CC[C@@]2(CCCN(C(=O)Oc3ccccc3)C2)C1,AC50,[11],20 µM (inconclusive)
same,AC50,[4],15.8 µM (inconclusive)
same,AC50,[17],5.01 µM (inconclusive)
O=C(/C=C/c1ccco1)OCc1nnc(-c2ccc(Cl)cc2)o1,IC50,[9],> 47.1 µM (inactive)
same,EC50,[10],> 53 µM (inactive)
Cc1ccc2[nH]c(SCC(=O)Nc3cc([N+](=O)[O-])ccc3F)nc2c1,EC50,[1],14 µM (active)
same,EC50,[2],20.6 µM (active)
CC#CCCC(=O)N1C=Cc2ccccc2C1C#N (centres undefined),IC50,[9],> 47.1 µM (inactive)
same,EC50,[10],> 53 µM (inactive)
O=c1c2c3c(sc2n(CCN2CCCCC2)c(=O)n1Cc1ccco1)CCCCC3,EC50,[15],2.76 µM (active)
same,EC50,[16],> 30 µM (not active)
same,AC50,[14],17.9 µM (active)
COC(=O)c1ccc2c(=O)n(Cc3ccco3)c(SCC(=O)Nc3ccccc3Cl)nc2c1,EC50,[1],37.5 µM (active)
same,EC50,[2],44.3 µM (active)
CCOc1ccc(C2C(C(=O)c3ccc4c(c3)OCCO4)=C(O)C(=O)N2CCCN2CCOCC2)cc1 (centres undefined),IC50,[9],> 47.1 µM (inactive)
same,EC50,[10],> 53 µM (inactive)
COc1ccc(OC)c(NC(=O)c2cc(-c3cc(Cl)ccc3O)[nH]n2)c1,EC50,[1],36.7 µM (active)
same,EC50,[2],39.2 µM (active)
O=C(O)c1ccccc1NS(=O)(=O)c1ccc2c(c1)OCCO2,IC50,[9],> 47.1 µM (inactive)
same,EC50,[10],> 53 µM (inactive)
CCN(C(=O)CSc1cc(C)c2ccc(OC)cc2n1)C1CCS(=O)(=O)C1 (centres undefined),IC50,[9],> 47.1 µM (inactive)
same,EC50,[10],> 53 µM (inactive)
O=c1c2ccccc2nc2n1C(CBr)CN2 (centres undefined),IC50,[9],> 47.1 µM (inactive)
same,EC50,[10],> 53 µM (inactive)
CCCOc1ccccc1C1CC(=O)Nc2cc3c(cc21)OCCO3 (centres undefined),AC50,[18],3.66 µM (active)
same,AC50,[19],10.2 µM (active)
COc1ccc(CCNC(=O)c2c(N)n(CCN3CCOCC3)c3nc4ccccc4nc23)cc1OC,EC50,[20],> 120 µM (not active)
same,EC50,[21],13.3 µM (active)
same,EC50,[22],> 120 µM (not active)
same,EC50,[1],94.9 µM (active)
COc1ccccc1NC(=O)CCc1c(C)nc(O)c(C#N)c1C,AC50,[3],inconclusive
same,AC50,[4],0.00631 µM (inconclusive)
same,AC50,[17],17.8 µM (inconclusive)
COc1ccc(C(=O)N/N=C(\Cc2ncc[nH]2)c2ccccc2)cc1,EC50,[7],7.31 µM (active)
same,EC50,[8],> 38 µM (not active)
same,EC50,[15],1.46 µM (active)
same,EC50,[16],7.77 µM (active)
Cc1nc2ccccc2c(=O)n1/N=C/c1c(O)ccc2ccccc12,AC50,[14],6.35 µM (active)
CCCC(=O)NC(=S)NNC(=O)c1ccc([N+](=O)[O-])cc1,EC50,[7],> 160 µM (inactive)
same,EC50,[8],10.1 µM (active)
Cc1ccc(C(=O)Nc2nnc(-c3ccco3)o2)cc1C,IC50,[9],> 47.1 µM (inactive)
same,EC50,[10],> 53 µM (inactive)
